One data set deals with CMC (Homo sapiens, UniProt Q96QK1+Q9UBQ0). The note with it: in vitro; cited from earlier work.
The next data set concerns VPS26. As to conditions: neuronal cultures; cited from earlier work.
In a further data set the test system is neuronal cultures. The note with it: cited from earlier work.
For the next data set, the system named is Aβ40. The note with it: wild type and APP-mutated hippocampal neurons; cited from earlier work.
In another data set the test system is Aβ42. As to conditions: wild type and APP-mutated hippocampal neurons; cited from earlier work.
Data set [1] concerns the target VPS35 (Homo sapiens, UniProt Q96QK1+Q9UBQ0). The arrangement: host or cells: neuronal cultures. The note with it: neuronal cultures; cited from earlier work.
The target in data set [2] is T1, VPS35 (Mus musculus, UniProt Q9EQH3+Q9QZ88). Put plainly: VPS35 levels in Neuro2a cells by Western blot (screening of amino guanidine hydrazones). In kind it is cell-based. Also noted: endogenous in cells; host or cells: Neuro2a. As to conditions: 48 hours, compounds at 10 μM. How it is done:
To functionally screen the majority of synthetized amino guanidine hydrazones of the invention and determine their effects on the retromer complex, we incubated Neuro2a cells with each synthetized molecule at the concentration of 10 μM.
The test was executed in triplicate for each tested compound of the invention, cells lysates were established after 48 hours' incubation, and levels of VPS35 were normalized on the housekeeping gene β-Actin by Western blot. We observed a preliminary SAR among the compounds.
Fold changes are calculated over normalized VPS35 levels measured in vehicle-treated cells.
Neuro2a cells were seeded on 12 wells multiwell at the concentration of 100 000 cells/well. Cells were incubated with each compound, including the standard R55, at 10 μM for 48 hours. Cells were then washed in PBS 1× and lysed in a buffer containing Tris-HCl 10 mM pH8, EDTA 1 mM pH8, NaCl 100 mM, NP40 1%, with protease inhibitor cocktail (Sigma) 1×. Using a cell scraper total lysates were collected from each well, quantified with BCA (BCA protein assay, Thermofisher). Five μg were resolved on precast 10% acrylamide gel (Biorad). Proteins were transferred to a PVDF membrane (Millipore) and western blot were performed using the following antibodies: goat αVPS35 (1:1000), mouse α-βActin (1:10000). Detection of proteins was obtained by a chemiluminescence detection kit (PerkinElmer).

The target in data set [3] is T1, VPS35. Put plainly: VPS35 levels in spinal cord extracts of C57BL6J mice by western blot. In kind it is in vivo. Also noted: Lumbar spinal cords were dissected from saline perfused mice and rapidly homogenized; from tissue; host or cells: lumbar spinal cord of mice. The note with it: 10 mg/kg daily intraperitoneal for 7 days. The protocol: We next asked whether the compound 2a can cross the blood brain barrier (BBB) of the brain. We run a pharmacokinetic assay on C57BL6J mice that received daily intraperitoneal injections of compound 2a (10 mg/Kg/day). Mice were sacrificed after 1, 7, 15 and 30 days saline perfused to avoid the CNS contamination of compounds contained in blood circulation and brains used for the determination of compound 2a levels by mass spectrometry. […] We next investigated in vivo if the retromer stabilization occurs in response to Compound 2a treatment. We intraperitoneally injected R55 and Compound 2a in adult C57BL6J mice as above described. After one week, mice were sacrificed, proteins extracts were assayed by western blot.
Lumbar spinal cords were dissected from saline perfused mice and rapidly homogenized in the following lysis buffer: Tris-HCl 10 mM pH 8, EDTA pH 8 1 mM, NaCl 100 mM, NP40 1% and protease inhibitor cocktail (Sigma). Protein extracts were obtained using a tight-fitting glass Potter tissue grinder (1 ml; Wheaton) and then sonicated at a frequency of 20 kHz (10 times-1s). […] Protein concentrations were measured by BCA protein assay kit (Thermofisher) according to the manufacturer's recommendations. […] Quantifications were done using the Image Lab 6.0.1 software (Bio-Rad).

With `N=C(N)SCc1ccc(CSC(=N)N)s1` [Compound R55], at CMC, the “increase in denaturation temperature” value was “≈ 10 °C”. Besides, the VPS26 levels entry with VPS26 is on record as “≈ 150%”. Besides, the “not toxic up to (concentration)” value in the data set with neuronal cultures is “up to 50 μM”. In addition, the “reduction of Aβ40 levels” value in the data set on Aβ40 was “up to 44%”. Further, the “reduction of Aβ42 levels” value in the data set on Aβ42 is listed as “up to 39%”. Also, the VPS35 levels result at VPS35 [1] is “≈ 180%”. In addition, the “VPS35 levels (in words)” value at VPS35 [2] is “efficiently and dose-dependently increased VPS35 levels”. Further, the “VPS35 levels in SC extracts (ratio versus vehicle-treated mice)” value at VPS35 [3] was “did not increase VPS35 levels”.

(Values after patent US20220213030A1, “AMINOGUANIDINE HYDRAZONES AS RETROMER STABILIZERS USEFUL FOR TREATING NEUROLOGICAL DISEASES” (OSPEDALE SAN RAFFAELE SRL, priority 2019, published 2022).)
